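Where inhibition never reached the appropriate level, the endpoint shown equals the highest concentration tested. Otherwise, values were interpolated linearly from a five-concentration, 48-hour dose response in 96-well plates. The concentration for 50% growth inhibition is given as GI50. TGI: total growth inhibition.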
Assays:
Test in all cases: NCI tumour cell line growth inhibition, 48 h
M19-MEL melanoma = system: M19-MEL melanoma
DMS 114 small cell lung = system: DMS 114 small cell lung
DMS 273 small cell lung = system: DMS 273 small cell lung
KM20L2 colon = system: KM20L2 colon
DLD-1 colon = system: DLD-1 colon
SN12K1 renal = system: SN12K1 renal
P388/ADR leukemia = system: P388/ADR leukemia
P388 leukemia = system: P388 leukemia
XF 498 CNS = system: XF 498 CNS
SNB-78 CNS = system: SNB-78 CNS

SMILES	TGI (M19-MEL melanoma)	TGI (DMS 114 small cell lung)	TGI (DMS 273 small cell lung)	TGI (KM20L2 colon)	TGI (DLD-1 colon)	GI50 (SN12K1 renal)	TGI (SN12K1 renal)	GI50 (P388/ADR leukemia)	TGI (P388/ADR leukemia)	GI50 (M19-MEL melanoma)	GI50 (DMS 114 small cell lung)	GI50 (P388 leukemia)	TGI (P388 leukemia)	GI50 (DMS 273 small cell lung)	GI50 (XF 498 CNS)	TGI (XF 498 CNS)	GI50 (KM20L2 colon)	GI50 (DLD-1 colon)	GI50 (SNB-78 CNS)	TGI (SNB-78 CNS)
Nc1nc(SCc2ccccc2Cl)c2ncn(C3OC(CO)C(O)C3O)c2n1 (stereo not given)	> 100 µM	> 100 µM	> 100 µM	> 100 µM	> 100 µM	–	–	–	–	–	–	–	–	–	–	–	–	–	–	–
[CH3][Sn]([CH3])([CH3])[S]C(=S)N1CCOCC1	31.7 µM	3.72 µM	6.13 µM	8.2 µM	5.54 µM	1.12 µM	12.1 µM	0.136 µM	0.902 µM	0.73 µM	0.772 µM	0.082 µM	0.389 µM	0.508 µM	0.643 µM	5.97 µM	0.789 µM	0.162 µM	9.94 µM	> 100 µM
C/C(=C\C(=O)Nc1ccc2n[nH]nc2c1)Nc1ccc2n[nH]nc2c1	> 100 µM	> 100 µM	–	> 100 µM	> 100 µM	–	–	–	–	–	–	–	–	–	–	–	–	–	–	> 100 µM
Cc1c2cc[n+](Cc3ccc(I)cc3)cc2c(C)c2c1[nH]c1ccccc12	1.49 µM	2.63 µM	6.17 µM	> 15.4 µM	> 25 µM	–	5.92 µM	–	> 25 µM	–	–	–	0.558 µM	–	–	1.17 µM	–	–	–	> 25 µM
Oc1c(Br)cc2c(c1Br)-c1c(c(O)c3c4c1=NCCC=4C=N3)NCC2	8.82 µM	9.76 µM	27.7 µM	18.7 µM	25 µM	–	17.4 µM	–	43.2 µM	–	–	–	> 22.2 µM	–	–	27.2 µM	–	–	–	13.4 µM
N#C[S-].[La+3].c1ccc(-c2ccccn2)nc1.c1ccc(-c2ccccn2)nc1.c1ccc(-c2ccccn2)nc1	> 100 µM	97.2 µM	88.5 µM	–	> 100 µM	–	–	–	–	38 µM	26.1 µM	–	–	19.1 µM	–	–	–	17.2 µM	59.4 µM	> 100 µM
Cc1nc2ccc(NCCN(C)C)c3c(=O)c4ccccc4n1c23	19.5 µM	21.5 µM	–	16.9 µM	21.3 µM	–	–	–	–	–	–	–	–	–	–	–	–	–	–	23.9 µM

Source: PubChem BioAssay (NCI)
